Measured values published in patent publication US20260159536A1, “AKR1C3-ACTIVATED DNA ALKYLATING AGENT, AND MEDICAL APPLICATION THEREOF” (ASCENTAWITS PHARMACEUTICALS, LTD., priority 2021, published 2026).
Like-named read-outs stand apart in the source and are kept apart here.

Columns and labels:
NCI-H2110 = assay: AKR1C3-dependent cytotoxicity, NSCLC cell line NCI-H2110; assay type: cell-based
Procedure: (§1) The tested compound was then added. The compound was dissolved in 100% DMSO at 200 times of the desired final test concentration. When the medicament was added, the compound was further diluted to 4 times of the desired final test concentration by using the complete medium. 50 μL of aliquots of the compound with specific concentration were added to the microwells containing 150 μL of medium, and then the final medicament concentration was obtained. […] The medicament was then washed. […] After the incubation was finished, the Alamar Blue was used to analyze and quantify the living cells.

NCI-H2228 = assay: AKR1C3-dependent cytotoxicity, NSCLC cell line NCI-H2228; assay type: cell-based; conditions: Homo sapiens
Procedure: as §1

[1] = Liver microsome stability, human; assay type: in vitro ADME; conditions: for Percentage remaining after 30 minutes: Human liver microsomes
Procedure: (§2) 1) Two individual experiments were performed.
(§3) All experiments were performed in duplicate.

NCI-H1792 = assay: AKR1C3-dependent cytotoxicity, NSCLC cell line NCI-H1792; assay type: cell-based; conditions: Homo sapiens
Procedure: as §1

[2] = system: human liver cancer LI6652; assay: In vivo pharmacodynamics, liver cancer LI6652 subcutaneous xenograft PDX model; parameters: species or system BALB/c nude mice; conditions: 5 mg/kg i.p. QDx5, 2 days off, 2 weeks off, 2 cycles; Day 28
[3] = system: HuPrime model LI6664 human liver cancer; assay: In vivo pharmacodynamics, liver cancer LI6664 PDX model; parameters: species or system BALB/c nude mice; conditions: for relative tumor inhibition rate TGI (%): QWx3; for Relative tumor volume (x ± S) / Tumor volume (x ± S): mean ± standard error; for Tumor volume (x ± S): in mm³ (unit assumed)
Procedure: Experiment Instruction: BALB/c nude mice were subcutaneously inoculated with HuPrime® model LI6664 tumor blocks to establish a subcutaneous transplantation tumor model of human liver cancer. […] Among them, 7.5% anhydrous ethanol+7.5% polyoxyethylene (35) castor oil+85% glucose injection D5W (pH 7.4) vehicle control group was administered by tail vein once a week for 3 consecutive weeks; test drug AST-3424 0.3 mg/kg and 1 mg/kg groups were administered by tail vein injection once a day for 5 consecutive days, followed by 2 days off, followed by 2 weeks off, and then continuously administered for 5 consecutive days; the test drug AST-3424 1.25 mg/kg group was administered by tail vein injection once a week for 2 consecutive weeks, followed by one week off, and then continuously administered for 2 consecutive weeks, Compound A 0.5 mg/kg, 1.5 mg/kg, and 4.5 mg/kg groups were administered by tail vein injection once a week for three consecutive weeks, followed by 1 week off, and then administered for three consecutive weeks. […] The efficacy was evaluated according to the relative tumor inhibition rate TGI (%), and the safety was evaluated according to the change in body weight and the death of the animals.

NCI-H23 = assay: AKR1C3-dependent cytotoxicity, NSCLC cell line NCI-H23; assay type: cell-based; conditions: Homo sapiens
Procedure: as §1

[4] = Liver microsome stability, mouse; assay type: in vitro ADME; conditions: for Percentage remaining after 30 minutes: Mouse liver microsomes
Procedure: as §2, §3

[5] = Liver microsome stability, monkey; assay type: in vitro ADME; conditions: for Percentage remaining after 30 minutes: Monkey liver microsomes
Procedure: as §2, §3

[6] = system: HuPrime model GA6201 human gastric cancer; conditions: for Relative tumor volume (x ± S) / T/C (%) / TGI (%) / Tumor volume (x ± S): Day 38
Procedure: The test was divided into groups of the test drug Isocyclophosphamide 60 mg/kg group, the test drug AST-3424 5 mg/kg group, the test drug A compound 2.5 mg/kg and 5 mg/kg groups, and normal saline (pH 7.0-7.6) vehicle control group, a total of 5 groups, with 5 mice per group.
In the above dosing regimen, Isocyclophosphamide was designed based on the best dosing regimen with maximum safe dosage as recited in the document (Jessica D. Sun, Qian Liu, Dharmendra Ahluwalia, Damien J. Ferraro, Yan Wang, Don Jung, Mark D. Matteucci, and Charles P. Hart. Comparison of hypoxia-activated prodrug evofosfamide (TH-302) and ifosfamide in preclinical non-small cell lung cancer models [J]. Cancer Biology & Therapy, 2016, 17(4): 371-380).

O=[N+]([O-])c1ccc(C(OP(=O)(N2CC2)N2CC2)C(F)(F)F)cc1Oc1ccc(-c2ccc(F)cc2)c(F)c1 (racemic) [Compound A]
IC50 (NCI-H2110): 67.8 nM
IC50 (NCI-H2228): 12.8 nM
Percentage remaining after 30 minutes ([1]; with the addition of NADPH): 115.25%
Percentage remaining after 30 minutes ([1]; without the addition of NADPH): 111.93%
stability in liver microsomes ([1]; human): relatively stable
IC50 (NCI-H1792): 375 nM
TGI (%) [2]: 99.86%
relative tumor inhibition rate TGI (%) ([3]; 0.5 mg/kg i.v. QWx3, 1 week off, Day 28): 34.07%
relative tumor inhibition rate TGI (%) ([3]; 1.5 mg/kg i.v. QWx3, 1 week off, Day 28): 66.57%
relative tumor inhibition rate TGI (%) ([3]; 4.5 mg/kg i.v. QWx3, 1 week off, Day 28): 77.05%
T/C (%) ([3]; Compound A 0.5 mg/kg, Day 28): 65.93%
Relative tumor volume (x ± S) ([3]; Compound A 0.5 mg/kg, Day 28): 8.51 ± 2.07
Tumor volume (x ± S) ([3]; Compound A 0.5 mg/kg, Day 28): 920.46 ± 215.96
T/C (%) ([3]; Compound A 1.5 mg/kg, Day 28): 33.43%
Relative tumor volume (x ± S) ([3]; Compound A 1.5 mg/kg, Day 28): 4.31 ± 0.54
Tumor volume (x ± S) ([3]; Compound A 1.5 mg/kg, Day 28): 466.31 ± 77.63
T/C (%) ([3]; Compound A 4.5 mg/kg, Day 28): 22.95%
Relative tumor volume (x ± S) ([3]; Compound A 4.5 mg/kg, Day 28): 2.96 ± 0.27
Tumor volume (x ± S) ([3]; Compound A 4.5 mg/kg, Day 28): 320.72 ± 40.03
Size of tumor volume ([3]; Group6, Compound A 0.5 mg/kg, Day 0): 108.44 mm^3
Size of tumor volume ([3]; Group6, Compound A 0.5 mg/kg, Day 4): 201.76 mm^3
Size of tumor volume ([3]; Group6, Compound A 0.5 mg/kg, Day 7): 277.38 mm^3
Size of tumor volume ([3]; Group6, Compound A 0.5 mg/kg, Day 11): 301.39 mm^3
Size of tumor volume ([3]; Group6, Compound A 0.5 mg/kg, Day 14): 347.30 mm^3
Size of tumor volume ([3]; Group6, Compound A 0.5 mg/kg, Day 18): 434.18 mm^3
Size of tumor volume ([3]; Group6, Compound A 0.5 mg/kg, Day 21): 518.23 mm^3
Size of tumor volume ([3]; Group6, Compound A 0.5 mg/kg, Day 25): 746.19 mm^3
Size of tumor volume ([3]; Group6, Compound A 0.5 mg/kg, Day 28): 920.46 mm^3
Size of tumor volume ([3]; Group6, Compound A 0.5 mg/kg, Day 32): 1036.44 mm^3
Size of tumor volume ([3]; Group6, Compound A 0.5 mg/kg, Day 35): 1258.05 mm^3
Size of tumor volume ([3]; Group6, Compound A 0.5 mg/kg, Day 39): 1426.66 mm^3
Size of tumor volume ([3]; Group6, Compound A 0.5 mg/kg, Day 42): 1661.81 mm^3
Size of tumor volume ([3]; Group6, Compound A 0.5 mg/kg, Day 46): 2037.97 mm^3
Size of tumor volume ([3]; Group6, Compound A 0.5 mg/kg, Day 49): 1746.71 mm^3
Size of tumor volume ([3]; Group7, Compound A 1.5 mg/kg, Day 0): 108.25 mm^3
Size of tumor volume ([3]; Group7, Compound A 1.5 mg/kg, Day 4): 127.56 mm^3
Size of tumor volume ([3]; Group7, Compound A 1.5 mg/kg, Day 7): 152.00 mm^3
Size of tumor volume ([3]; Group7, Compound A 1.5 mg/kg, Day 11): 161.35 mm^3
Size of tumor volume ([3]; Group7, Compound A 1.5 mg/kg, Day 14): 206.44 mm^3
Size of tumor volume ([3]; Group7, Compound A 1.5 mg/kg, Day 18): 225.71 mm^3
Size of tumor volume ([3]; Group7, Compound A 1.5 mg/kg, Day 21): 287.02 mm^3
Size of tumor volume ([3]; Group7, Compound A 1.5 mg/kg, Day 25): 398.93 mm^3
Size of tumor volume ([3]; Group7, Compound A 1.5 mg/kg, Day 28): 466.31 mm^3
Size of tumor volume ([3]; Group7, Compound A 1.5 mg/kg, Day 32): 543.94 mm^3
Size of tumor volume ([3]; Group7, Compound A 1.5 mg/kg, Day 35): 643.84 mm^3
Size of tumor volume ([3]; Group7, Compound A 1.5 mg/kg, Day 39): 805.84 mm^3
Size of tumor volume ([3]; Group7, Compound A 1.5 mg/kg, Day 42): 1060.20 mm^3
Size of tumor volume ([3]; Group7, Compound A 1.5 mg/kg, Day 46): 1179.82 mm^3
Size of tumor volume ([3]; Group7, Compound A 1.5 mg/kg, Day 49): 1407.10 mm^3
Size of tumor volume ([3]; Group8, Compound A 4.5 mg/kg, Day 0): 108.26 mm^3
Size of tumor volume ([3]; Group8, Compound A 4.5 mg/kg, Day 4): 125.30 mm^3
Size of tumor volume ([3]; Group8, Compound A 4.5 mg/kg, Day 7): 142.58 mm^3
Size of tumor volume ([3]; Group8, Compound A 4.5 mg/kg, Day 11): 150.82 mm^3
Size of tumor volume ([3]; Group8, Compound A 4.5 mg/kg, Day 14): 176.69 mm^3
Size of tumor volume ([3]; Group8, Compound A 4.5 mg/kg, Day 18): 180.29 mm^3
Size of tumor volume ([3]; Group8, Compound A 4.5 mg/kg, Day 21): 201.42 mm^3
Size of tumor volume ([3]; Group8, Compound A 4.5 mg/kg, Day 25): 282.76 mm^3
Size of tumor volume ([3]; Group8, Compound A 4.5 mg/kg, Day 28): 320.72 mm^3
Size of tumor volume ([3]; Group8, Compound A 4.5 mg/kg, Day 32): 339.73 mm^3
Size of tumor volume ([3]; Group8, Compound A 4.5 mg/kg, Day 35): 360.45 mm^3
Size of tumor volume ([3]; Group8, Compound A 4.5 mg/kg, Day 39): 391.38 mm^3
Size of tumor volume ([3]; Group8, Compound A 4.5 mg/kg, Day 42): 417.79 mm^3
Size of tumor volume ([3]; Group8, Compound A 4.5 mg/kg, Day 46): 451.01 mm^3
Size of tumor volume ([3]; Group8, Compound A 4.5 mg/kg, Day 49): 538.20 mm^3
weight loss ([3]; treatment period, tested doses): no weight loss
IC50 (NCI-H23): 11900 nM
Percentage remaining after 30 minutes ([4]; with the addition of NADPH): 98.59%
Percentage remaining after 30 minutes ([4]; without the addition of NADPH): 104.30%
stability in liver microsomes ([4]; mouse): relatively stable
Percentage remaining after 30 minutes ([5]; with the addition of NADPH): 82.29%
Percentage remaining after 30 minutes ([5]; without the addition of NADPH): 81.30%
stability in liver microsomes ([5]; monkey): relatively stable
relative tumor inhibition rate (TGI) ([6]; 2.5 mg/kg and 5 mg/kg i.v. QWx2): more than 96%
Relative tumor volume (x ± S) ([6]; 2.5 mg/kg i.v. QWx2): 0.29 ± 0.08
T/C (%) ([6]; 2.5 mg/kg i.v. QWx2): 3.15%
TGI (%) ([6]; 2.5 mg/kg i.v. QWx2): 96.85%
Tumor volume (x ± S) ([6]; 2.5 mg/kg i.v. QWx2): 28.69 ± 8.2
Tumor volume ([6]; 2.5 mg/kg i.v., 0 day): 94.61 mm^3
Tumor volume ([6]; 2.5 mg/kg i.v., 3 days): 120.19 mm^3
Tumor volume ([6]; 2.5 mg/kg i.v., 7 days): 118.33 mm^3
Tumor volume ([6]; 2.5 mg/kg i.v., 10 days): 118.65 mm^3
Tumor volume ([6]; 2.5 mg/kg i.v., 14 days): 96.08 mm^3
Tumor volume ([6]; 2.5 mg/kg i.v., 17 days): 76.14 mm^3
Tumor volume ([6]; 2.5 mg/kg i.v., 21 days): 71.72 mm^3
Tumor volume ([6]; 2.5 mg/kg i.v., 24 days): 57.94 mm^3
Tumor volume ([6]; 2.5 mg/kg i.v., 28 days): 45.51 mm^3
Tumor volume ([6]; 2.5 mg/kg i.v., 31 days): 43.44 mm^3
Tumor volume ([6]; 2.5 mg/kg i.v., 35 days): 32.04 mm^3
Tumor volume ([6]; 2.5 mg/kg i.v., 38 days): 28.69 mm^3
Tumor volume ([6]; 2.5 mg/kg i.v., 42 days): 23.49 mm^3
Tumor volume ([6]; 2.5 mg/kg i.v., 45 days): 25.00 mm^3
Tumor volume ([6]; 2.5 mg/kg i.v., 49 days): 17.72 mm^3
Relative tumor volume (x ± S) ([6]; Compound A 5 mg/kg i.v. QWx2): 0.19 ± 0.08
T/C (%) ([6]; Compound A 5 mg/kg i.v. QWx2): 2.04%
TGI (%) ([6]; Compound A 5 mg/kg i.v. QWx2): 97.96%
Tumor volume (x ± S) ([6]; Compound A 5 mg/kg i.v. QWx2): 19.97 ± 10.18
Tumor volume ([6]; Compound A 5 mg/kg i.v., 0 day): 94.36 mm^3
Tumor volume ([6]; Compound A 5 mg/kg i.v., 3 days): 118.42 mm^3
Tumor volume ([6]; Compound A 5 mg/kg i.v., 7 days): 101.91 mm^3
Tumor volume ([6]; Compound A 5 mg/kg i.v., 10 days): 97.17 mm^3
Tumor volume ([6]; Compound A 5 mg/kg i.v., 14 days): 74.20 mm^3
Tumor volume ([6]; Compound A 5 mg/kg i.v., 17 days): 59.77 mm^3
Tumor volume ([6]; Compound A 5 mg/kg i.v., 21 days): 46.21 mm^3
Tumor volume ([6]; Compound A 5 mg/kg i.v., 24 days): 44.03 mm^3
Tumor volume ([6]; Compound A 5 mg/kg i.v., 28 days): 38.50 mm^3
Tumor volume ([6]; Compound A 5 mg/kg i.v., 31 days): 35.92 mm^3
Tumor volume ([6]; Compound A 5 mg/kg i.v., 35 days): 22.70 mm^3
Tumor volume ([6]; Compound A 5 mg/kg i.v., 38 days): 19.97 mm^3
Tumor volume ([6]; Compound A 5 mg/kg i.v., 42 days): 5.05 mm^3
Tumor volume ([6]; Compound A 5 mg/kg i.v., 45 days): 11.14 mm^3
Tumor volume ([6]; Compound A 5 mg/kg i.v., 49 days): 9.96 mm^3
body weight change / toxic effects ([6]; GA6201 model, tested doses): no effect on the body weights
